# Test results published in ChEMBL document CHEMBL1681651, “A broad spectrum anticancer nucleoside with selective toxicity against human colon cells in vitro” (2011).
# Key:
# Format in all cases: functional
# NCI/ADR-RES = test: Growth inhibition of human NCI/ADR-RES cells assessed as cell growth at 1 uM after 48 hrs by SRB assay; conditions: read-out: Activity
# MDA-MB-435 [1] = test: Growth inhibition of human MDA-MB-435 cells assessed as cell growth at 1 uM after 48 hrs by SRB assay; conditions: MDA-MB-435, 48 h, read-out: Activity
# HL-60(TB) = test: Growth inhibition of human HL-60(TB) cells assessed as cell growth at 10 uM after 48 hrs by SRB assay; conditions: HL-60, 48 h, read-out: Activity
# NCI-H322M = test: Growth inhibition of human NCI-H322M cells after 48 hrs by […] growth inhibition assay
# HT-29 = test: Growth inhibition of human HT-29 cells after 48 hrs by […] growth inhibition assay; conditions: HT-29, 48 h
# M14 = test: Growth inhibition of human M14 cells after 48 hrs by […] growth inhibition assay; conditions: M14, 48 h
# SF-539 [2] = test: Growth inhibition of human SF539 cells after 48 hrs by […] growth inhibition assay; conditions: SF-539, 48 h
# SNB-75 = test: Growth inhibition of human SNB75 cells after 48 hrs by […] growth inhibition assay; conditions: SNB-75, 48 h
# OVCAR-8 = test: Growth inhibition of human OVCAR8 cells after 48 hrs by […] growth inhibition assay; conditions: OVCAR-8, 48 h
# UO-31 = test: Growth inhibition of human UO31 cells after 48 hrs by […] growth inhibition assay; conditions: UO-31, 48 h
# MDA-MB-231 [3] = test: Growth inhibition of human MDA-MB-231 cells after 48 hrs by […] growth inhibition assay; conditions: MDA-MB-231, 48 h
# [4] = Growth inhibition of human […] cells assessed as cell growth at 0.1 uM after 48 hrs by SRB assay; conditions: read-out: Activity
# HOP-92 = test: Growth inhibition of human HOP92 cells assessed as cell growth at 0.1 uM after 48 hrs by SRB assay; conditions: HOP-92, 48 h, read-out: Activity
# NCI-H23 [5] = test: Growth inhibition of human NCI-H23 cells assessed as cell growth at 0.1 uM after 48 hrs by SRB assay; conditions: NCI-H23, 48 h, read-out: Activity
# SF-539 [6] = test: Growth inhibition of human SF539 cells assessed as cell growth at 0.1 uM after 48 hrs by SRB assay; conditions: SF-539, 48 h, read-out: Activity
# U-251 = test: Growth inhibition of human U251 cells assessed as cell growth at 0.1 uM after 48 hrs by SRB assay; conditions: U-251, 48 h, read-out: Activity
# OVCAR-4 = test: Growth inhibition of human OVCAR4 cells assessed as cell growth at 0.1 uM after 48 hrs by SRB assay; conditions: OVCAR-4, 48 h, read-out: Activity
# MCF7 = test: Growth inhibition of human MCF7 cells assessed as cell growth at 0.1 uM after 48 hrs by SRB assay; conditions: MCF7, 48 h, read-out: Activity
# MDA-MB-231 [7] = test: Growth inhibition of human MDA-MB-231 cells assessed as cell growth at 0.1 uM after 48 hrs by SRB assay; conditions: MDA-MB-231, 48 h, read-out: Activity
# MDA-MB-435 [8] = test: Growth inhibition of human MDA-MB-435 cells assessed as cell growth at 0.1 uM after 48 hrs by SRB assay; conditions: MDA-MB-435, 48 h, read-out: Activity
# SK-OV-3 [9] = test: Growth inhibition of human SKOV3 cells assessed as cell growth at 10 uM after 48 hrs by SRB assay; conditions: SK-OV-3, 48 h, read-out: Activity
# MDA-MB-435 [10] = test: Growth inhibition of human MDA-MB-435 cells assessed as cell growth at 10 uM after 48 hrs by SRB assay; conditions: MDA-MB-435, 48 h, read-out: Activity
# T47D = test: Growth inhibition of human T47D cells assessed as cell growth at 10 uM after 48 hrs by SRB assay; conditions: read-out: Activity
# SK-OV-3 [11] = test: Growth inhibition of human SKOV3 cells assessed as cell growth at 100 uM after 48 hrs by SRB assay; conditions: SK-OV-3, 48 h, read-out: Activity
# ACHN = test: Growth inhibition of human ACHN cells assessed as cell growth at 100 uM after 48 hrs by SRB assay; conditions: read-out: Activity
# SN12C = test: Growth inhibition of human SN12C cells assessed as cell growth at 100 uM after 48 hrs by SRB assay; conditions: read-out: Activity
# BT-549 [12] = test: Growth inhibition of human BT549 cells assessed as cell growth at 100 uM after 48 hrs by SRB assay; conditions: BT-549, 48 h, read-out: Activity
# NCI-H23 [13] = test: Growth inhibition of human NCI-H23 cells assessed as cell growth at 1 mM after 48 hrs by SRB assay; conditions: NCI-H23, 48 h, read-out: Activity
# CAKI-1 = test: Growth inhibition of human Caki1 cells assessed as cell growth at 1 mM after 48 hrs by SRB assay; conditions: CAKI-1, 48 h, read-out: Activity
# MDA-MB-231 [14] = test: Growth inhibition of human MDA-MB-231 cells assessed as cell growth at 1 mM after 48 hrs by SRB assay; conditions: MDA-MB-231, 48 h, read-out: Activity
# BT-549 [15] = test: Growth inhibition of human BT549 cells assessed as cell growth at 0.1 uM after 48 hrs by SRB assay; conditions: BT-549, 48 h, read-out: Activity
# CCRF-CEM = test: Growth inhibition of human CCRF-CEM cells assessed as cell growth at 1 uM after 48 hrs by SRB assay; conditions: read-out: Activity
# [16] = read-out: LC50 (the source's name)
# [17] = read-out: pLC50 (the source's name) (converted)
structure (smiles),measurement,setting,value
CCOC(=O)C[C@H]1[C@@H](O[Si](C)(C)C(C)(C)C)[C@H](n2cnc3c(NC(=O)Nc4ccccc4)ncnc32)O[C@@H]1CNC(=O)NC,growth at 1 µM,NCI/ADR-RES,107%
same,growth at 1 µM,MDA-MB-435 [1],92%
same,growth at 10 µM,HL-60(TB),101%
same,GI50,NCI-H322M; read-out: GI50,> 100 µM
same,CC50,NCI-H322M; [16],> 100 µM
same,TGI,NCI-H322M; read-out: TGI,> 100 µM
same,GI50,NCI-H322M; read-out: pGI50 (converted),> 100 µM
same,CC50,NCI-H322M; [17],> 100 µM
same,TGI,NCI-H322M; read-out: pTGI,> 100 µM
same,GI50,HT-29; read-out: GI50,4.2 µM
same,CC50,HT-29; [16],> 100 µM
same,TGI,HT-29; read-out: TGI,> 100 µM
same,GI50,HT-29; read-out: pGI50 (converted),4.17 µM
same,CC50,HT-29; [17],> 100 µM
same,TGI,HT-29; read-out: pTGI (converted),> 100 µM
same,GI50,M14; read-out: GI50,2.51 µM
same,CC50,M14; [16],78.6 µM
same,TGI,M14; read-out: TGI,11.6 µM
same,GI50,M14; read-out: pGI50 (converted),2.51 µM
same,CC50,M14; [17],79.4 µM
same,TGI,M14; read-out: pTGI (converted),11.5 µM
same,GI50,SF-539 [2]; read-out: GI50,5.19 µM
same,CC50,SF-539 [2]; [16],> 100 µM
same,TGI,SF-539 [2]; read-out: TGI,> 100 µM
same,GI50,SF-539 [2]; read-out: pGI50 (converted),5.25 µM
same,CC50,SF-539 [2]; [17],> 100 µM
same,TGI,SF-539 [2]; read-out: pTGI (converted),> 100 µM
same,GI50,SNB-75; read-out: GI50,4.56 µM
same,CC50,SNB-75; [16],> 100 µM
same,TGI,SNB-75; read-out: TGI,> 100 µM
same,GI50,SNB-75; read-out: pGI50 (converted),4.57 µM
same,CC50,SNB-75; [17],> 100 µM
same,TGI,SNB-75; read-out: pTGI (converted),> 100 µM
same,GI50,OVCAR-8; read-out: GI50,4.92 µM
same,CC50,OVCAR-8; [16],> 100 µM
same,TGI,OVCAR-8; read-out: TGI,77.2 µM
same,GI50,OVCAR-8; read-out: pGI50 (converted),4.9 µM
same,CC50,OVCAR-8; [17],> 100 µM
same,TGI,OVCAR-8; read-out: pTGI (converted),77.6 µM
same,GI50,UO-31; read-out: GI50,12.1 µM
same,CC50,UO-31; [16],71.7 µM
same,TGI,UO-31; read-out: TGI,29.5 µM
same,GI50,UO-31; read-out: pGI50 (converted),12 µM
same,CC50,UO-31; [17],72.4 µM
same,TGI,UO-31; read-out: pTGI (converted),29.5 µM
same,GI50,MDA-MB-231 [3]; read-out: GI50,3.96 µM
same,CC50,MDA-MB-231 [3]; [16],> 100 µM
same,TGI,MDA-MB-231 [3]; read-out: TGI,41.3 µM
same,GI50,MDA-MB-231 [3]; read-out: pGI50 (converted),3.98 µM
same,CC50,MDA-MB-231 [3]; [17],> 100 µM
same,TGI,MDA-MB-231 [3]; read-out: pTGI (converted),41.7 µM
same,growth at 0.1 µM,[4],77%
same,growth at 0.1 µM,HOP-92,4%
same,growth at 0.1 µM,NCI-H23 [5],101%
same,growth at 0.1 µM,SF-539 [6],97%
same,growth at 0.1 µM,U-251,98%
same,growth at 0.1 µM,OVCAR-4,98%
same,growth at 0.1 µM,MCF7,96%
same,growth at 0.1 µM,MDA-MB-231 [7],101%
same,growth at 0.1 µM,MDA-MB-435 [8],95%
same,growth at 10 µM,SK-OV-3 [9],90%
same,growth at 10 µM,MDA-MB-435 [10],89%
same,growth at 10 µM,T47D,73%
same,growth at 100 µM,SK-OV-3 [11],66%
same,growth at 100 µM,ACHN,47%
same,growth at 100 µM,SN12C,48%
same,growth at 100 µM,BT-549 [12],67%
same,growth at 1000 µM,NCI-H23 [13],36%
same,growth at 1000 µM,CAKI-1,7%
same,growth at 1000 µM,MDA-MB-231 [14],-13%
same,growth at 0.1 µM,BT-549 [15],104%
same,growth at 1 µM,CCRF-CEM,100%
